Counter-ions that a name gives are not always drawn. Like-named read-outs stand apart in the source and are kept apart here.
Key:
[1] = tested on: NIH-3T3 cells; experiment: Hoechst/propidium iodide cell death assay in NIH-3T3; format: cell-based; settings: for cytotoxicity at 20 µM: Mus musculus, NIH3T3, 24 h, read-out: Percentage of cell death % 24h NIH3t3
From the text: (§1) A high-content imaging system (PerkinElmer; Operetta CLS), was used to quantify cell death and apoptosis by calculating the number of propidium iodide-positive cells relative to Hoechst-positive cells, and the number of Annexin V-positive cells relative to Hoechst-positive cells, respectively.

[2] = molecular target: T1, 14-3-3ζ:BAD-112-136F interactions (Homo sapiens, UniProt P63104); experiment: BRET sensor screen for disruption of 14-3-3ζ-Rluc8:BAD-112-136F-mCitrine in living NIH-3T3 cells; format: cell-based, murine; parameters: inhibition: dose or concentration left out as unconfirmed; BRET reduction on NIH-3T3: unit not given here; settings: for inhibition / inhibition at 20 µM: NIH3T3, 3 h, read-out: BRET reduction on NIH-3T3
T1 construct: expressed in transfected cells; host or cells: NIH-3T3 fibroblasts, bi-directional pBI-CMV1 plasmid
T1 sequence (P63104 1-245): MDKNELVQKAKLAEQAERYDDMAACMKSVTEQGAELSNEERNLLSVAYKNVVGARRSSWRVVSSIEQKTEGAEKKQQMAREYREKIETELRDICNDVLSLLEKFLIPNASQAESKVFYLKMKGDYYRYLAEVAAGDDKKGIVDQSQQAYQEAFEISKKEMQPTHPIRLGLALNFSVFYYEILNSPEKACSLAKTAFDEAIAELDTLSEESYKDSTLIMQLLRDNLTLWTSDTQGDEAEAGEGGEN
Experimental: The Z’-score, which evaluates the robustness of an HTS assay readout, was calculated according to standard protocols. For the HTS, 384-well plates were coated with 100 μg/mL poly-L-ornithine (Sigma, Missouri, United States; #P3655) overnight at 37 °C, followed by rinsing with sterilized water. NIH-3T3 cells were transfected with the BRET sensor two days prior to experimentation, followed by replating onto the pre-coated 384-well plates at a density of 20,000 cells/well. After 24 h of incubation at 37 °C, growth media was replaced by Krebs buffer (pH 7.4).

[3] = tested on: HT-29 cells; experiment: Hoechst/propidium iodide cell death assay in HT-29; format: cell-based, human; settings: for cytotoxicity at 20 µM: Homo sapiens
From the text: as §1

[4] = NIH-3T3 cells, hits from the primary screen
[5] = NIH-3T3 expressing BRET sensor, 20 µM, 3 h
[6] = HT-29, 24 h, 20 µM, 24 h, read-out: Percentage of cell death % 24h HT-29
[7] = HT-29, 48 h, HT-29, 48h, 20 μM, read-out: Percentage of cell death % 48h, HT-29

In the case of `C=C(c1ccc(C(=O)O)cc1)c1cc2c(cc1C)C(C)(C)CCC2(C)C` [Bexarotene], the cytotoxicity at 20 µM ([1]; 20 µM, 24 h) is reported as 3.81%, the “Percentage of cell death % 48h, NIH3T3” value [1] is reported as 2.3561% and the inhibition [2, 4] is reported as 29.5%. The inhibition at 20 µM [2, 5] was 29.5%, the cytotoxicity at 20 µM [3, 6] was 0.535% and the cytotoxicity at 20 µM [3, 7] was 4.19%.

`CN1CCN(c2ccc(C(=O)Nc3n[nH]c4ccc(Cc5cc(F)cc(F)c5)cc34)c(NC3CCOCC3)c2)CC1` [Entrectinib] was tested, and the cytotoxicity at 20 µM ([1]; 20 µM, 24 h) was 81.5%, the “Percentage of cell death % 48h, NIH3T3” value [1] was 85.5203% and the inhibition [2, 4] was 56.8%. For the same compound, the inhibition at 20 µM [2, 5] was 56.8%, the cytotoxicity at 20 µM [3, 6] was 58.1% and the cytotoxicity at 20 µM [3, 7] was 80.4%.

In the case of `CC/C(=C(\c1ccccc1)c1ccc(OCCN(C)C)cc1)c1ccccc1` [Tamoxifen], the “Percentage of cell death % 24h NIH3t3” value ([1]; 20 µM, 24 h) is reported as 81.9489%, the “Percentage of cell death % 48h, NIH3T3” value [1] is reported as 78.8324% and the “BRET reduction on NIH-3T3” value [2, 4] is reported as 54.2923. The “BRET reduction on NIH-3T3” value [2, 5] was 54.2923, the “Percentage of cell death % 24h HT-29” value ([3]; 20 µM, 24 h) was 3.365% and the “Percentage of cell death % 48h, HT-29” value ([3]; HT-29, 48h, 20 μM) was 61.8661%. For the same compound, the “%Cell death HT-29” value ([3]; HT-29, time not given) was 63.3%.

For `CC(C)(O)c1ccccc1CC[C@@H](SCC1(CC(=O)O)CC1)c1cccc(/C=C/c2ccc3ccc(Cl)cc3n2)c1` [Montelukast Sodium], the cytotoxicity at 20 µM ([1]; 20 µM, 24 h) was 14.8%, the “Percentage of cell death % 48h, NIH3T3” value [1] was 2.7667% and the inhibition [2, 4] was 30.9%. For the same compound, the inhibition at 20 µM [2, 5] was 30.9%, the cytotoxicity at 20 µM [3, 6] was 0.524% and the cytotoxicity at 20 µM [3, 7] was 1.19%.

In the case of `CC[C@H](c1ccc(O)cc1)[C@@H](CC)c1ccc(O)cc1` [Hexestrol], the cytotoxicity at 20 µM ([1]; 20 µM, 24 h) is reported as 5.47%, the “Percentage of cell death % 48h, NIH3T3” value [1] is reported as 3.549% and the inhibition [2, 4] is reported as 36.7%. It also gave an inhibition at 20 µM [2, 5] of 36.7%, a cytotoxicity at 20 µM [3, 6] of 1.37% and a cytotoxicity at 20 µM [3, 7] of 3.31%.

With `CC1(C)Cc2c(-c3ccccc3)c(-c3ccc(Cl)cc3)c(CC(=O)O)n2C1` [Licofelone] the cytotoxicity at 20 µM ([1]; 20 µM, 24 h) was 0.823%, the “Percentage of cell death % 48h, NIH3T3” value [1] was 0.4583% and the inhibition [2, 4] was 33%. The inhibition at 20 µM [2, 5] was 33%, the cytotoxicity at 20 µM [3, 6] was 2.67% and the cytotoxicity at 20 µM [3, 7] was 3.98%.

For `C(=C\c1ccccc1)/CN1CCN(C(c2ccccc2)c2ccccc2)CC1` [Cinnarizine], the cytotoxicity at 20 µM ([1]; 20 µM, 24 h) was 0.412%, the “Percentage of cell death % 48h, NIH3T3” value [1] was 0.3398% and the cytotoxicity at 20 µM [3, 6] was 0.381%. For the same compound, the cytotoxicity at 20 µM [3, 7] was 1.26%.

For Sodium Aescinate, the “Percentage of cell death % 24h NIH3t3” value ([1]; 20 µM, 24 h) was 50.0783%, the “Percentage of cell death % 48h, NIH3T3” value [1] was 15.6079% and the “BRET reduction on NIH-3T3” value [2, 4] was 53.9832. The “BRET reduction on NIH-3T3” value [2, 5] was 53.9832, the “Percentage of cell death % 24h HT-29” value ([3]; 20 µM, 24 h) was 0.8457% and the “Percentage of cell death % 48h, HT-29” value ([3]; HT-29, 48h, 20 μM) was 0.6065%.

With `C#C[C@]1(O)CC[C@H]2[C@@H]3CCC4=CCCC[C@@H]4[C@H]3C(=C)C[C@@]21CC` [Desogestrel] the cytotoxicity at 20 µM ([1]; 20 µM, 24 h) was 16.1%, the “Percentage of cell death % 48h, NIH3T3” value [1] was 8.012% and the inhibition [2, 4] was 40.6%. For the same compound, the inhibition at 20 µM [2, 5] was 40.6%, the cytotoxicity at 20 µM [3, 6] was 1.59% and the cytotoxicity at 20 µM [3, 7] was 2.12%.

In the case of `O=C1c2c(O)ccc(O)c2C(=O)c2c(NCCNCCO)ccc(NCCNCCO)c21` [Mitoxantrone HCl], the cytotoxicity at 20 µM ([1]; 20 µM, 24 h) is reported as 0.018%, the “Percentage of cell death % 48h, NIH3T3” value [1] is reported as 0% and the inhibition [2, 4] is reported as 25.5%. The inhibition at 20 µM [2, 5] was 25.5%, the cytotoxicity at 20 µM [3, 6] was 0% and the cytotoxicity at 20 µM [3, 7] was 0.0037%.

For `C=C1/C(=C\C=C2/CCC[C@]3(C)[C@@H]([C@H](C)CCCC(C)(C)O)CC[C@@H]23)C[C@@H](O)C[C@@H]1O` [Calcitriol], the cytotoxicity at 20 µM ([1]; 20 µM, 24 h) was 1.56%, the “Percentage of cell death % 48h, NIH3T3” value [1] was 1.321% and the cytotoxicity at 20 µM [3, 6] was 0.461%. It also gave a cytotoxicity at 20 µM [3, 7] of 0.982%.

`Clc1ccc(CSC(Cn2ccnc2)c2ccc(Cl)cc2Cl)cc1` (centres unmarked) [Sulconazole Nitrate] was tested, and the cytotoxicity at 20 µM ([1]; 20 µM, 24 h) was 10.8%, the “Percentage of cell death % 48h, NIH3T3” value [1] was 9.7879% and the cytotoxicity at 20 µM [3, 6] was 7.98%. For the same compound, the cytotoxicity at 20 µM [3, 7] was 12.2%.

For `CC(C)(C)CC(C)(C)c1ccc(OCCOCC[N+](C)(C)Cc2ccccc2)cc1` [Benzethonium Chloride], the cytotoxicity at 20 µM [1] was 51.9%, the “Percentage of cell death % 48h, NIH3T3” value [1] was 51.9198% and the cytotoxicity at 20 µM ([3]; HT-29, 24 h, read-out: Percentage of cell death % 24h HT-29) was 43.5%. It also gave a cytotoxicity at 20 µM ([3]; HT-29, 48 h, read-out: Percentage of cell death % 48h, HT-29) of 90.4%.

— publication PMC12603070, “A high-throughput screening approach to discover potential colorectal cancer chemotherapeutics: repurposing drugs to identify novel disruptors of 14-3-3 proteins” (Cell Death & Disease, 2025)
